ChEMBL document CHEMBL3352542, “Synthesis, biological evaluation and molecular modeling study of 2-(1,3,4-thiadiazolyl-thio and 4-methyl-thiazolyl-thio)-quinazolin-4-ones as a new class of DHFR inhibitors” (Bioorg Med Chem Lett, 2014)
The source made the active and inactive calls. The rule behind the calls is not given here.

How the values were obtained:
Dihydrofolate reductase = target: T1, Dihydrofolate reductase (Bos taurus, UniProt P00376); experiment: Inhibition of bovine liver DHFR
T1 sequence (P00376 whole entry): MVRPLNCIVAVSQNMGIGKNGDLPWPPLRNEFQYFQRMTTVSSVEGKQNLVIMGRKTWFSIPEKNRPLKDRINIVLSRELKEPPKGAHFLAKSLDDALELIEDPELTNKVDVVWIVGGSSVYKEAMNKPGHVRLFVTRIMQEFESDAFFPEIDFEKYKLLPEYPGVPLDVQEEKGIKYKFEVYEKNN

Staphylococcus aureus = experiment: Antimicrobial activity against Staphylococcus aureus assessed as inhibition zone at 200 ug/disk after 24 hrs by disc-diffusion method; assay type: functional; details: read-out: IZ
Bacillus subtilis = experiment: Antimicrobial activity against Bacillus subtilis assessed as inhibition zone at 200 ug/disk after 24 hrs by disc-diffusion method; assay type: functional; details: read-out: IZ
Escherichia coli = experiment: Antimicrobial activity against Escherichia coli assessed as inhibition zone at 200 ug/disk after 24 hrs by disc-diffusion method; assay type: functional; details: read-out: IZ
Pseudomonas aeruginosa = experiment: Antimicrobial activity against Pseudomonas aeruginosa assessed as inhibition zone at 200 ug/disk after 24 hrs by disc-diffusion method; assay type: functional; details: read-out: IZ
Candida albicans = experiment: Antimicrobial activity against Candida albicans assessed as inhibition zone at 200 ug/disk after 24 hrs by disc-diffusion method; assay type: functional; details: read-out: IZ
HL-60(TB) = experiment: Growth inhibition of human HL-60(TB) cells at 10 uM after 48 hrs; assay type: functional
K562 = experiment: Growth inhibition of human K562 cells at 10 uM after 48 hrs; assay type: functional
SR = experiment: Growth inhibition of human SR cells at 10 uM after 48 hrs; assay type: functional
[1] = (§1) Growth inhibition of human HOP92 cells at 10 uM after 48 hrs; assay type: functional; details: HOP-92, 48 h, read-out: GI
[2] = (§2) Growth inhibition of human SF295 cells at 10 uM after 48 hrs; assay type: functional; details: SF-295, 48 h, read-out: GI
SNB-19 = experiment: Growth inhibition of human SNB19 cells at 10 uM after 48 hrs; assay type: functional
U-251 = experiment: Growth inhibition of human U251 cells at 10 uM after 48 hrs; assay type: functional
Malme-3M = experiment: Growth inhibition of human MALME-3M cells at 10 uM after 48 hrs; assay type: functional
A498 = experiment: Growth inhibition of human A498 cells at 10 uM after 48 hrs; assay type: functional
CAKI-1 = experiment: Growth inhibition of human CAKI-1 cells at 10 uM after 48 hrs; assay type: functional
[3] = (§3) Growth inhibition of human UO31 cells at 10 uM after 48 hrs; assay type: functional; details: UO-31, 48 h, read-out: GI
[4] = (§4) Growth inhibition of human PC3 cells at 10 uM after 48 hrs; assay type: functional; details: PC-3, 48 h, read-out: GI
[5] = (§5) Growth inhibition of human Hs 578T cells at 10 uM after 48 hrs; assay type: functional; details: read-out: GI
T47D = experiment: Growth inhibition of human T47D cells at 10 uM after 48 hrs; assay type: functional
CCRF-CEM = experiment: Growth inhibition of human CCRF-CEM cells at 10 uM after 48 hrs; assay type: functional
MOLT-4 = experiment: Growth inhibition of human MOLT4 cells at 10 uM after 48 hrs; assay type: functional
RPMI-8226 = experiment: Growth inhibition of human RPMI8226 cells at 10 uM after 48 hrs; assay type: functional
A549 = experiment: Growth inhibition of human A549 cells at 10 uM after 48 hrs; assay type: functional
HOP-92 = experiment: as §1; assay type: functional
NCI-H226 = experiment: Growth inhibition of human NCI-H226 cells at 10 uM after 48 hrs; assay type: functional
NCI-H522 = experiment: Growth inhibition of human NCI-H522 cells at 10 uM after 48 hrs; assay type: functional
HCT-116 = experiment: Growth inhibition of human HCT116 cells at 10 uM after 48 hrs; assay type: functional
HCT-15 = experiment: Growth inhibition of human HCT15 cells at 10 uM after 48 hrs; assay type: functional
HT-29 = experiment: Growth inhibition of human HT-29 cells at 10 uM after 48 hrs; assay type: functional
KM12 = experiment: Growth inhibition of human KM12 cells at 10 uM after 48 hrs; assay type: functional
SF-295 = experiment: as §2; assay type: functional
SF-539 = experiment: Growth inhibition of human SF539 cells at 10 uM after 48 hrs; assay type: functional
MDA-MB-435 = experiment: Growth inhibition of human MDA-MB-435 cells at 10 uM after 48 hrs; assay type: functional
SK-MEL-5 = experiment: Growth inhibition of human SK-MEL-5 cells at 10 uM after 48 hrs; assay type: functional
UACC-257 = experiment: Growth inhibition of human UACC257 cells at 10 uM after 48 hrs; assay type: functional
UACC-62 = experiment: Growth inhibition of human UACC62 cells at 10 uM after 48 hrs; assay type: functional
OVCAR-4 = experiment: Growth inhibition of human OVCAR4 cells at 10 uM after 48 hrs; assay type: functional
786-0 = experiment: Growth inhibition of human 786-0 cells at 10 uM after 48 hrs; assay type: functional
RXF 393 = experiment: Growth inhibition of human RXF393 cells at 10 uM after 48 hrs; assay type: functional
UO-31 = experiment: as §3; assay type: functional
PC-3 = experiment: as §4; assay type: functional
MCF7 = experiment: Growth inhibition of human MCF7 cells at 10 uM after 48 hrs; assay type: functional
MDA-MB-231 = experiment: Growth inhibition of human MDA-MB-231 cells at 10 uM after 48 hrs; assay type: functional
Hs-578T = experiment: as §5; assay type: functional
MDA-MB-468 = experiment: Growth inhibition of human MDA-MB-468 cells at 10 uM after 48 hrs; assay type: functional
HOP-62 = experiment: Growth inhibition of human HOP62 cells at 10 uM after 48 hrs; assay type: functional
SK-MEL-28 = experiment: Growth inhibition of human SK-MEL-28 cells at 10 uM after 48 hrs; assay type: functional, cell-based

SMILES: COc1cc2nc(Sc3nnc(N)s3)n(-c3ccc(Cl)cc3)c(=O)c2cc1OC
- IC50 (Dihydrofolate reductase): 6 µM
- zone of inhibition at 200 µg/disc (Staphylococcus aureus): 8 mm
- zone of inhibition at 200 µg/disc (Bacillus subtilis): 8 mm
- zone of inhibition at 200 µg/disc (Escherichia coli): 8 mm
- zone of inhibition at 200 µg/disc (Pseudomonas aeruginosa): 8 mm
- zone of inhibition at 200 µg/disc (Candida albicans): 8 mm
- inhibition of growth at 10 µM (HL-60(TB); HL-60, 48 h, read-out: GI): 31.5%
- inhibition of growth at 10 µM (K562; K562, 48 h, read-out: GI): 15.3%
- inhibition of growth at 10 µM (SR; read-out: GI): 14.4%
- inhibition of growth at 10 µM [1]: 40.9%
- inhibition of growth at 10 µM [2]: 12.1%
- inhibition of growth at 10 µM (SNB-19; SNB-19, 48 h, read-out: GI): 11.9%
- inhibition of growth at 10 µM (U-251; U-251, 48 h, read-out: GI): 11.5%
- inhibition of growth at 10 µM (Malme-3M; read-out: GI): 12.4%
- inhibition of growth at 10 µM (A498; A498, 48 h, read-out: GI): 18.8%
- inhibition of growth at 10 µM (CAKI-1; CAKI-1, 48 h, read-out: GI): 12.6%
- inhibition of growth at 10 µM [3]: 23.6%
- inhibition of growth at 10 µM [4]: 11.2%
- inhibition of growth at 10 µM [5]: 10.9%
- inhibition of growth at 10 µM (T47D; read-out: GI): 13.7%

SMILES: Cc1ccc2nc(Sc3nnc(N)s3)n(-c3ccc(Oc4ccccc4)cc3)c(=O)c2c1
- IC50 (Dihydrofolate reductase): 0.1 µM
- zone of inhibition at 200 µg/disc (Staphylococcus aureus): 8 mm
- zone of inhibition at 200 µg/disc (Bacillus subtilis): 8 mm
- zone of inhibition at 200 µg/disc (Escherichia coli): 8 mm
- zone of inhibition at 200 µg/disc (Pseudomonas aeruginosa): 8 mm
- zone of inhibition at 200 µg/disc (Candida albicans): 8 mm
- growth inhibition (GI) (CCRF-CEM): inactive
- growth inhibition (GI) (HL-60(TB)): inactive
- growth inhibition (GI) (K562): inactive
- growth inhibition (GI) (MOLT-4): inactive
- growth inhibition (GI) (RPMI-8226): inactive
- growth inhibition (GI) (SR): inactive
- growth inhibition (GI) (A549): inactive
- growth inhibition (GI) (HOP-92): inactive
- growth inhibition (GI) (NCI-H226): inactive
- growth inhibition (GI) (NCI-H522): inactive
- growth inhibition (GI) (HCT-116): inactive
- growth inhibition (GI) (HCT-15): inactive
- growth inhibition (GI) (HT-29): inactive
- growth inhibition (GI) (KM12): inactive
- growth inhibition (GI) (SF-295): inactive
- growth inhibition (GI) (SF-539): inactive
- growth inhibition (GI) (SNB-19): inactive
- growth inhibition (GI) (U-251): inactive
- growth inhibition (GI) (Malme-3M): inactive
- growth inhibition (GI) (MDA-MB-435): inactive
- growth inhibition (GI) (SK-MEL-5): inactive
- growth inhibition (GI) (UACC-257): inactive
- growth inhibition (GI) (UACC-62): inactive
- growth inhibition (GI) (OVCAR-4): inactive
- growth inhibition (GI) (786-0): inactive
- growth inhibition (GI) (A498): inactive
- growth inhibition (GI) (CAKI-1): inactive
- growth inhibition (GI) (RXF 393): inactive
- growth inhibition (GI) (UO-31): inactive
- growth inhibition (GI) (PC-3): inactive
- growth inhibition (GI) (MCF7): inactive
- growth inhibition (GI) (MDA-MB-231): inactive
- growth inhibition (GI) (Hs-578T): inactive
- growth inhibition (GI) (T47D): inactive
- growth inhibition (GI) (MDA-MB-468): inactive
- growth inhibition (GI) (HOP-62): inactive
- growth inhibition (GI) (SK-MEL-28): inactive
